Literature values, collected in patent US11022607B2, “Compound-carrier systems for assays in nematodes” (Assistance Publique—Hôpitaux de Paris, priority 2013, dated 2021).

Test system: C. elegans
Conditions: 25 ml of liposomes containing 50 mg of uranin; in 3 h

O=C([O-])c1ccccc1-c1c2ccc(=O)cc-2oc2cc([O-])ccc12.[Na+].[Na+] [uranin]
amount of fluorescent dye absorption, compared with worms administered dye by conventional methods: 100 fold
